Experimental data as given in patent US7314719B2, “Method for increasing productivity of secondary metabolite by conferring drug-resistant mutations” (priority 2001, dated 2008).
Read-outs that look alike come from different tables or passages of the source.

Experiments:
[1] = system: S. coelicolor 1147 (wild type) and mutants S-1, SG-1, SG-2; test: MIC of antibiotics on GYM agar (screening of drug-resistant mutants); format: cell-based, Streptomyces coelicolor; conditions: for Concentration at which growth was inhibited completely: GYM agar; for MIC: 2 days of incubation on GYM agar
Method: The spontaneous streptomycin, gentamicin or rifampicin-resistant mutants of S. coelicolor were obtained as the colonies that grew within 7 days at 30° C. after spores (or cells) were spread on GYM agar (composition is the same as the above GYM agar) containing 5 μg streptomycin per ml or 1.0 μg of gentamicin per ml or 200 μg of rifampicin per ml, respectively (Growth of parental strain was inhibited completely with 1 μg of streptomycin per ml, 0.1 μg of gentamicin per ml or 10 μg of rifampicin per ml). The single colonies grew on screening plates were picked out and inoculated to R4 agar containing 1% of glucose, 0.1% of yeast extract, 0.001% of Casamino Acids, 0.3% of proline, 1% of MgCl2·6H2O, 0.4% of CaCl2·2H2O, 0.002% of K2SO4, 0.56% of TES [N-Tris (hydroxymethyl)methyl-2-aminoethanesulfonic acid], 0.2% of trace elements solution (as described for R2YE medium) and 2% of agar (before adding agar, adjusted to pH 7.2). The R4 plates were incubated at 30° C. for 6 days and the amount of blue pigment actinorhodin produced was compared among wild type strain and mutants, and selected the over-producers among the mutants. Then, the mutants with over-producing actinorhodin were inoculated into R4 liquid medium (composition is the same as the R4 agar, but no agar) in 25 ml of test tubes containing 5 ml medium on an orbital shaker at 30° C., 350 rpm. After incubation for 6 days, 1 ml culture samples were taken and adjusted pH to 8.0. After centrifugation at 1100 g for 5 min., actinorhodin production in supernatants was assayed by measurement of the optical density of supernatants at 633 nm. The highest productivity detected reached 1.6-fold for gentamicin-resistant mutants, 1.8-fold for streptomycin-resistant mutants and 3.0-fold for rifampicin-resistant mutants. The frequencies for such high producers were 5%, 6% and 10%, respectively (see Table 1 and FIG. 7).
The spontaneous geneticin, gentamicin or rifampicin-resistant mutants of S-1 were obtained as colonies that grew on GYM agar containing 2.5 μg of geneticin per ml or 2.5 μg of gentamicin per ml or 200 μg of rifampicin per ml. (Growth of S-1 strain was inhibited completely with 0.5 μg of geneticin per ml, 0.5 μg of gentamicin per ml or 10 μg of rifampicin per ml.). Actinorhodin productivity of mutants was examined using R4 agar plates and R4 liquid medium.
The spontaneous rifampicin-resistant mutants of SG-1 and SG-2 strains were obtained as colonies that grew on GYM agar containing 200 μg of rifampicin per ml.

[2] = system: S. coelicolor 1147 and drug-resistant mutants; test: Resistance level to antibiotics on GYM agar (Table 2); format: cell-based, Streptomyces coelicolor; conditions: 4 days on GYM agar
[3] = system: Streptomyces lividans 66 and mutants; test: Resistance level to rifampicin and streptomycin (Table 5); format: cell-based
Source text: A rifampicin-resistant mutant and a streptomycin-and rifampicin-resistant mutant of Streptomyces lividans 66 were produced according to a similar manner to that of Examples 1, 2 or 3, and the actinorhodin production was estimated.

[4] = system: Bacillus cereus No. 2045 and mutants; test: Resistance level to gentamicin and rifampicin (Table 4); format: cell-based
Method: A gentamicin-resistant mutant and a rifampicin-and gentamicin-resistant mutant of Bacillus cereus No. 2045 were produced according to a similar manner to that of Examples 1, 2 or 3. Those mutants were precultured in bouillon medium for 10 h. Cells (0.1 ml) were inoculated into 5 ml of production medium consisting of (per liter) 20 g of polypeptone, 20 g of corn steep liquor, and 5 g of NaCl (adjusted to pH 7.5 with NaOH) for 2 days at 30° C.

[5] = cited from earlier work
[6] = strain S. lividans 66, wild-type
[7] = Streptomyces coelicolor, 48 h, strain S. coelicolor 1147 (wild type), read-out: MIC
[8] = parental strain (S. coelicolor wild type)
[9] = strain B. cereus No. 2045, wild-type

CN[C@@H]1[C@@H](O)[C@@H](O[C@@H]2[C@@H](O)[C@H](O[C@H]3O[C@H]([C@@H](C)O)[C@@H](O)[C@H](O)[C@H]3N)[C@@H](N)C[C@H]2N)OC[C@]1(C)O [Geneticin, geneticin]
Concentration at which growth was inhibited completely ([1]; S-1 strain): 0.5 μg per ml | MIC ([1]; Streptomyces coelicolor, 48 h, strain S-1 (str), read-out: MIC): 0.2 µg/mL | Resistance level ([2]; strain 1147 (wild type)): 0.2 µg/mL | Resistance level ([2]; strain SGe-1): 0.5 µg/mL | Resistance level ([2]; strain SGe-2): 1 µg/mL | Resistance level ([2]; strain SGe-3): 1 µg/mL

CO[C@H]1/C=C/O[C@@]2(C)Oc3c(C)c(O)c4c(O)c(c(/C=N/N5CCN(C)CC5)c(O)c4c3C2=O)NC(=O)/C(C)=C\C=C\[C@H](C)[C@H](O)[C@@H](C)[C@@H](O)[C@@H](C)[C@H](OC(C)=O)[C@@H]1C [Rifampicin, rifampicin]
Resistance level ([3]; S. lividans strain SR-1 (rif)): 200 µg/mL | Resistance level ([3]; S. lividans strain SR-2 (rif)): 400 µg/mL | Resistance level ([3]; S. lividans strain SR-3 (rif)): 400 µg/mL | Resistance level [3, 6]: 10 µg/mL | Resistance level ([3]; strain SRS-1 (rif-str)): 400 µg/mL | Resistance level ([3]; strain SRS-2 (rif-str)): 350 µg/mL | Resistance level ([3]; strain SRS-3 (rif-str)): 400 µg/mL | Concentration at which growth was inhibited completely ([1]; S-1 strain): 10 μg per ml | Concentration at which growth was inhibited completely ([1]; SG-1 strain): 10 μg per ml | Concentration at which growth was inhibited completely ([1]; SG-2 strain): 10 μg per ml | MIC [1, 7]: 10 µg/mL | Concentration at which growth was inhibited completely [1, 8]: 10 μg per ml | MIC ([1]; strain S-1 (str)): Rifampicin(10) μg/ml | MIC ([1]; strain SG-1 (str-gen)): Rifampicin(10) μg/ml | MIC ([1]; strain SG-2 (str-gen)): Rifampicin(10) μg/ml | Resistance level ([2]; S. coelicolor strain SR-1): 50 µg/mL | Resistance level ([2]; S. coelicolor strain SR-2): 150 µg/mL | Resistance level ([2]; S. coelicolor strain SR-3): 400 µg/mL | Resistance level ([2]; strain 1147 (wild type)): 10 µg/mL | Resistance level ([2]; strain R-1): 400 µg/mL | Resistance level ([2]; strain R-2): 400 µg/mL | Resistance level ([2]; strain R-3): 400 µg/mL | Resistance level ([2]; strain SGR-1): 400 µg/mL | Resistance level ([2]; strain SGR-2): 400 µg/mL | Resistance level ([2]; strain SGR-3): 300 µg/mL | Resistance level ([2]; strain SGR-4): 400 µg/mL | Resistance level ([2]; strain SGR-5): 400 µg/mL | Resistance level ([2]; strain SGR-6): 300 µg/mL | Resistance level ([2]; strain SR-4): 400 µg/mL | Resistance level ([2]; strain SR-5): 400 µg/mL | Resistance level ([2]; strain SR-6): 400 µg/mL | Resistance level ([2]; strain SR-7): 400 µg/mL | Resistance level [4, 9]: 1.0 µg/mL | Resistance level ([4]; strain BG-1 (gen)): 1.0 µg/mL | Resistance level ([4]; strain BG-2 (gen)): 0.8 µg/mL | Resistance level ([4]; strain BG-3 (gen)): 1.0 µg/mL | Resistance level ([4]; strain BGR-1 (gen-rif)): 100 µg/mL | Resistance level ([4]; strain BGR-2 (gen-rif)): 120 µg/mL | Resistance level ([4]; strain BGR-3 (gen-rif)): 150 µg/mL

[H]/N=C(/N)N[C@H]1[C@H](O)[C@@H](O)[C@H](O[C@@H]2O[C@@H](C)[C@](O)(C=O)[C@H]2O[C@@H]2O[C@@H](CO)[C@H](O)[C@@H](O)[C@@H]2NC)[C@@H](N/C(N)=N\[H])[C@@H]1O [Streptomycin, streptomycin]
Resistance level ([3]; S. lividans strain SR-1 (rif)): 1.0 µg/mL | Resistance level ([3]; S. lividans strain SR-2 (rif)): 0.8 µg/mL | Resistance level ([3]; S. lividans strain SR-3 (rif)): 1.0 µg/mL | Resistance level [3, 6]: 1.0 µg/mL | Resistance level ([3]; strain SRS-1 (rif-str)): 50 µg/mL | Resistance level ([3]; strain SRS-2 (rif-str)): 120 µg/mL | Resistance level ([3]; strain SRS-3 (rif-str)): 100 µg/mL | MIC [1, 7]: 1 µg/mL | Concentration at which growth was inhibited completely [1, 8]: 1 μg per ml | Resistance level ([2]; S. coelicolor strain SR-1): 50 µg/mL | Resistance level ([2]; S. coelicolor strain SR-2): 50 µg/mL | Resistance level ([2]; S. coelicolor strain SR-3): 50 µg/mL | Resistance level ([2]; strain 1147 (wild type)): 1 µg/mL | Resistance level ([2]; strain S-1): 100 µg/mL | Resistance level ([2]; strain S-2): 5 µg/mL | Resistance level ([2]; strain S-3): 10 µg/mL | Resistance level ([2]; strain SG-1): 100 µg/mL | Resistance level ([2]; strain SG-2): 100 µg/mL | Resistance level ([2]; strain SG-3): 100 µg/mL | Resistance level ([2]; strain SGR-1): 100 µg/mL | Resistance level ([2]; strain SGR-2): 100 µg/mL | Resistance level ([2]; strain SGR-3): 50 µg/mL | Resistance level ([2]; strain SGR-4): 50 µg/mL | Resistance level ([2]; strain SGR-5): 50 µg/mL | Resistance level ([2]; strain SGR-6): 100 µg/mL | Resistance level ([2]; strain SGe-1): 100 µg/mL | Resistance level ([2]; strain SGe-2): 100 µg/mL | Resistance level ([2]; strain SGe-3): 100 µg/mL | Resistance level ([2]; strain SR-4): 100 µg/mL | Resistance level ([2]; strain SR-5): 100 µg/mL | Resistance level ([2]; strain SR-6): 50 µg/mL | Resistance level ([2]; strain SR-7): 50 µg/mL

C[C@H]1O[C@H](CC(=O)O)Cc2c1c(O)c1c(O)c(-c3cc(=O)c4c(=O)c5c(c(=O)c=4c3=O)[C@@H](C)O[C@H](CC(=O)O)C5)cc(O)c1c2O [actinorhodin]
Solubility ([5]; in alcohol, acetic acid, acetone): slightly soluble | Solubility ([5]; in aq acid): Practically insol | Solubility ([5]; in aq alkali (bright blue color)): sol | Solubility ([5]; in piperidine, tetrahydrofuran, dioxane, phenol): Soluble

gentamicin
Concentration at which growth was inhibited completely ([1]; S-1 strain): 0.5 μg per ml | Concentration at which growth was inhibited completely [1, 8]: 0.1 μg per ml | MIC ([1]; strain S-1 (str)): Gentamicin(0.1) μg/ml | MIC ([1]; strain S. coelicolor 1147 (wild type)): Gentamicin (0.1) μg/ml | Resistance level ([2]; strain 1147 (wild type)): 0.1 µg/mL | Resistance level ([2]; strain G-1): 0.3 µg/mL | Resistance level ([2]; strain G-2): 0.3 µg/mL | Resistance level ([2]; strain G-3): 0.3 µg/mL | Resistance level ([2]; strain SG-1): 0.3 µg/mL | Resistance level ([2]; strain SG-2): 0.3 µg/mL | Resistance level ([2]; strain SG-3): 0.3 µg/mL | Resistance level ([2]; strain SGR-1): 0.2 µg/mL | Resistance level ([2]; strain SGR-2): 0.2 µg/mL | Resistance level ([2]; strain SGR-3): 0.3 µg/mL | Resistance level ([2]; strain SGR-4): 0.2 µg/mL | Resistance level ([2]; strain SGR-5): 0.5 µg/mL | Resistance level ([2]; strain SGR-6): 0.3 µg/mL | Resistance level [4, 9]: 0.8 µg/mL | Resistance level ([4]; strain BG-1 (gen)): 4.0 µg/mL | Resistance level ([4]; strain BG-2 (gen)): 4.0 µg/mL | Resistance level ([4]; strain BG-3 (gen)): 4.5 µg/mL | Resistance level ([4]; strain BGR-1 (gen-rif)): 4.5 µg/mL | Resistance level ([4]; strain BGR-2 (gen-rif)): 5.0 µg/mL | Resistance level ([4]; strain BGR-3 (gen-rif)): 5.0 µg/mL
